Four compounds from PMC8805605, “Discovery of Dimeric Arylsulfonamides as Potent ADAM8 Inhibitors” (ACS Medicinal Chemistry Letters, 2021) can be followed below.

A value given as a limit tells only on which side of the number the result lay.

In one assay the target is T1, ADAM10 (Homo sapiens, UniProt O14672).
T1 construct: purchased R&D Systems
T1 sequence (O14672 214-748): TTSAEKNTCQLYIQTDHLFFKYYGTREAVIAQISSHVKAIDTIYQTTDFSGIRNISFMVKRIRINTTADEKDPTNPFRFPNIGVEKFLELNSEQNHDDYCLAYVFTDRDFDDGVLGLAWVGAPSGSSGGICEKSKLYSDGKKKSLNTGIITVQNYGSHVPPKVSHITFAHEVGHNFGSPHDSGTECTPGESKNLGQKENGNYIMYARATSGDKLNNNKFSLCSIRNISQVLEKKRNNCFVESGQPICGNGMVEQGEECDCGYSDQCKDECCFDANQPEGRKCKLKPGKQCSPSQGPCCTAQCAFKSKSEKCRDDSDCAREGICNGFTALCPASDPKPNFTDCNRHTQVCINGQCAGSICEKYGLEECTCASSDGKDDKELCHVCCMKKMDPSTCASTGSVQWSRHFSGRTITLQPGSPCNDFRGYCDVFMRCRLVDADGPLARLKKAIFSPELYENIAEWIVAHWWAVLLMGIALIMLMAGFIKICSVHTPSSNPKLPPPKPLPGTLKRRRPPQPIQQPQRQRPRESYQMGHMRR
As to the kind of experiment: ADAM10 fluorometric inhibition assay. The class given is biochemical. The note with it: mean of three independent experiments in duplicate, read-out: In vitro inhibitory activity IC50 on ADAM10. As for the experimental part: (§1) The newly synthesized bivalent derivatives 1–3 were then tested in vitro on human recombinant ADAM8 in comparison with JG26 by a fluorometric assay. The inhibitory activity against a panel of MMPs and ADAM10/17 was determined as well to assess their selectivity profile. […]
(§2) VI. Biological Activity on Isolated Enzymes
(§3) MMP and ADAM10 inhibition assays.
(§4) Recombinant human MMP-14 catalytic domain was a kind gift of Prof. Gillian Murphy (Department of […]
(§5) Oncology, University of Cambridge, UK). Pro-MMP-1, pro-MMP-2, and pro-MMP-9, were purchased […]
(§6) from Calbiochem (Merck-Millipore). Pro-MMP-12 and ADAM10 were purchased from R&D Systems.
(§7) Proenzymes were activated immediately prior to use with p-aminophenylmercuric acetate (APMA 2 […]
(§8) mM for 1 h at 37°C for MMP-2 and MMP-1, 1 mM for 1 h at 37°C for MMP-9). Pro-MMP-12 was […]
(§9) auto activated by incubating in the fluorometric assay buffer (FAB: Tris 50 mM, pH = 7.5, NaCl 150 […]
(§10) mM, CaCl2 10 mM, Brij 35 0.05% and DMSO 1%) for 30 h at 37°C. For assay measurements, each […]
(§11) inhibitor stock solution (DMSO, 10 mM) was further diluted in FAB at seven different concentrations.
(§12) Activated enzyme (final concentration 0.56 nM for MMP-2, 1.3 nM for MMP-9, 1.0 nM for MMP- […]
(§13) 14cd, 2.0 nM for MMP-1, 2.3 nM for MMP-12 and 20 nM for ADAM10) and inhibitor solutions were […]
(§14) incubated in the assay buffer for 3 h at 25 °C. ADAM10 was incubated for 1 h at 37°C in a different […]
(§15) buffer at pH 9 (Tris 25 mM, ZnCl2 25 µM, Brij-35 0.005 %). After the addition of 200 µM solution of […]
(§16) the fluorogenic substrate Mca-Lys-Pro-Leu-Gly-Leu-Dap(Dnp)-Ala-Arg-NH2 (Bachem) for all the […]
(§17) enzymes in DMSO (final concentration 2 µM for all enzymes, 10 µM for ADAM10), the hydrolysis […]
(§18) was monitored every 10 sec. for 15 min. recording the increase in fluorescence (λ ex = 325 nm, λ em = […]
(§19) 400 nm) using a Molecular Devices SpectraMax Gemini XPS plate reader. The assays were performed […]
(§20) in triplicate in a total volume of 200 μL per well in 96-well microtitre plates (Corning, black, NBS).
(§21) Control wells lack inhibitor. The MMP inhibition activity was expressed in relative fluorescent units […]
(§22) (RFU). Percent of inhibition was calculated from control reactions without the inhibitor. IC50 was determined using the formula: v i/v o = 1/(1 + [I]/ IC50), where v i is the initial velocity of substrate cleavage in the presence of the inhibitor at concentration [I] and v o is the initial velocity in the absence of the inhibitor. Results were analyzed using SoftMax Pro software (version 5.4.3, Molecular Devices, Sunnyvale, CA) and Prism Software version 5.0 (GraphPad Software, Inc., La Jolla, CA, USA).
(§23) ADAM8 and ADAM17 inhibition assays […]

The target in a further assay is T2, MMP-1 (Homo sapiens, UniProt P03956).
T2 construct: purchased Calbiochem (Merck-Millipore)
T2 sequence (P03956 100-469): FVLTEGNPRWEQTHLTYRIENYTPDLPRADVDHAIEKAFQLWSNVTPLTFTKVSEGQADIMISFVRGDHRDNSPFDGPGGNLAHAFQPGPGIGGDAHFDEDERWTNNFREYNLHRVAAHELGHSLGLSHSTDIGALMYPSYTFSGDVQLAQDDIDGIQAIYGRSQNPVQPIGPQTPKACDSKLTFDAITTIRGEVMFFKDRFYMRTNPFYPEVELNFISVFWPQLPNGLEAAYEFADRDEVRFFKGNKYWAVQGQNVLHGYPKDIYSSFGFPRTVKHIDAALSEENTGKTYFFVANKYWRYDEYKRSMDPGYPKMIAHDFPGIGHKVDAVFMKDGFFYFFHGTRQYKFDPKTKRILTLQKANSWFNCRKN
The assay can be described thus: MMP-1 fluorometric inhibition assay. The class given is biochemical. The note with it: mean of three independent experiments in duplicate, read-out: In vitro inhibitory activity IC50 on MMP-1. As for the experimental part:
as §1, §2, §3, §4, §5, §6, §7, §8, §9, §10, §11, §12, §13, §14, §15, §16, §17, §18, §19, §20, §21, §22, §23

Regarding `O=C(CCCNC(=O)c1cccc(C(=O)NCCCC(=O)NCCC[C@@H](NS(=O)(=O)c2ccc(OCc3cc(Br)cc(Br)c3)cc2)C(=O)NO)c1)NCCC[C@@H](NS(=O)(=O)c1ccc(OCc2cc(Br)cc(Br)c2)cc1)C(=O)NO` [Compound 1], the half-inhibitory concentration (IC50) on ADAM10 was 30.6 µM; on MMP-1, 415 µM.

As to `O=C(NCCC[C@@H](NS(=O)(=O)c1ccc(OCc2cc(Br)cc(Br)c2)cc1)C(=O)NO)c1cccc(C(=O)NCCC[C@@H](NS(=O)(=O)c2ccc(OCc3cc(Br)cc(Br)c3)cc2)C(=O)NO)c1` [Compound 2], the IC50 is 10 µM at ADAM10 and > 200 µM at MMP-1.

`O=C(NCCC[C@@H](NS(=O)(=O)c1ccc(OCc2cc(Br)cc(Br)c2)cc1)C(=O)NO)NCCC[C@@H](NS(=O)(=O)c1ccc(OCc2cc(Br)cc(Br)c2)cc1)C(=O)NO` [Compound 3]: the IC50 stood at 27.4 µM at ADAM10 and 348 µM on MMP-1.

As for `NC(=O)NCCC[C@@H](NS(=O)(=O)c1ccc(OCc2cc(Br)cc(Br)c2)cc1)C(=O)NO` [JG26, reference compound], the IC50 on ADAM10 is 0.15 µM; at MMP-1 it was > 500 µM.

As usually defined, the IC50 is the point on the concentration scale where inhibition reaches its midpoint.
